In patent publication US20110104702A1, “Methods for Predicting Tumor Response to Chemotherapy and Selection of Tumor Treatment” (NATIONAL UNIVERSITY HOSPITAL, priority 2008, published 2011):

Key:
cT3-T4 breast tumors = assay: Independent dataset: four cycles of pre-operative single agent docetaxel, pathological response; assay type: in vivo, human
Text: Next, we applied the 90-supergene panels for pathological response to the original cohort using unsupervised hierarchical clustering, and found, expectedly, the predictors to be highly accurate; the division yielded groups with different PFS, though not statistically significant (Table 1). To validate the pathological response signatures further, we applied them, using SVM, in an independent set of 18 patients treated with four cycles of neoadjuvant three-weekly single agent docetaxel prior to surgery, who had tumor biopsy before and 3 weeks after one chemotherapy cycle. Pathological response definition was similar to our original cohort. Consistent with the findings for the PFS predictors, T2 outperformed T1 signatures, with the AUC of ROC being 0.631 (95% CI 0.350-0.912) for T2 compared to 0.462 (95% CI 0.190-0.733) and 0.446 (95% Cl 0.161-0.731) for TΔ and T1 respectively. T2 signatures accurately identified 77% of poor pathological responders, compared to 54% for both T1 and TΔ (FIG. 2c-d).
An independent dataset comprising of 18 breast cancer patients treated with pre-operative chemotherapy followed by surgery as part of another clinical protocol at our institution was used to validate the gene expression signatures that predict for pathological response. Validation was performed using SVM. In brief, patients from this independent dataset had cT3-T4 breast tumors and were treated with four cycles of pre-operative single agent docetaxel every three weeks. […] Patients underwent lumpectomy or mastectomy and axillary clearance after chemotherapy, and were classified as good (5/18) and poor (13/18) pathological responders using the same criteria as described in our primary cohort. This dataset was not used to validate the PFS signatures as the median follow-up was short at 18.5 months, and only 5/18 had progressed at the time of analysis.

[1] = system: locally advanced breast cancers; details: weekly doxorubicin 14 mg/m^2 for 16 weeks, n=20; cited from earlier work
[2] = four cycles of docetaxel every three weeks, then surgery, n=18

Structure (SMILES) | good pathological responders (cT3-T4 breast tumors; [2]) | poor pathological responders (cT3-T4 breast tumors; [2]) | patients progressed at the time of analysis (cT3-T4 breast tumors; median follow-up 18.5 months) | median relapse-free survival [1] [months] | patients relapsed [1]
CC(=O)O[C@@]12CO[C@@H]1C[C@H](O)[C@@]1(C)C(=O)[C@H](O)C3=C(C)[C@@H](OC(=O)[C@H](O)[C@@H](NC(=O)OC(C)(C)C)c4ccccc4)C[C@@](O)([C@@H](OC(=O)c4ccccc4)[C@H]21)C3(C)C [docetaxel] | 5/18 | 13/18 | 5/18 |  | 
COc1cccc2c1C(=O)c1c(O)c3c(c(O)c1C2=O)C[C@@](O)(C(=O)CO)C[C@@H]3O[C@H]1C[C@H](N)[C@H](O)[C@H](C)O1 [doxorubicin] |  |  |  | 25 | 12/20
